Source: patent US8889874B2, “Imidazolone-chalcone derivatives as potential anticancer agent and process for the preparation thereof” (Council of Scientific and Industrial Research, priority 2010, dated 2014)
Read-outs that look alike come from different tables or passages of the source.

Columns and labels:
Assay type in all cases: cell-based, human
[1] = test system: Melanoma cancer cell lines; assay: NCI anticancer screen, SRB assay, panel summary; conditions: for GI50: Homo sapiens
Outline: (§1)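 Sulforhodamine B protein assay read cell growth after 48 h of continuous compound exposure. Dose-response curves per cell line used at least five 10-fold-diluted concentrations, within a panel of fifty-three human lines from nine tumour types.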

Breast cancer cell lines = assay: NCI anticancer screen, SRB assay, panel summary; conditions: Homo sapiens
Outline: as §1

[2] = test system: Non-small cell lung cancer cell lines; assay: NCI anticancer screen, SRB assay, panel summary; conditions: Homo sapiens
Outline: as §1

[3] = test system: Prostate cancer cell lines; assay: NCI anticancer screen, SRB assay, panel summary
Outline: as §1

CNS cancer cell lines = assay: NCI anticancer screen, SRB assay, panel summary; conditions: for GI50: Homo sapiens
Outline: as §1

[4] = test system: Ovarian cancer cell lines; assay: NCI anticancer screen, SRB assay, panel summary; conditions: Homo sapiens
Outline: as §1

[5] = test system: Leukemia cancer cell lines; assay: NCI anticancer screen, SRB assay, panel summary; conditions: Homo sapiens
Outline: as §1

Colon cancer cell lines = assay: NCI anticancer screen, SRB assay, panel summary; conditions: for GI50: Homo sapiens
Outline: as §1

Renal cancer cell lines = assay: NCI anticancer screen, SRB assay, panel summary; conditions: Homo sapiens, Renal panel
Outline: as §1

SW-620 (colon) = assay: NCI anticancer screen, SRB assay, 48 h; conditions: Homo sapiens
Outline: as §1

UO-31 (renal) = assay: NCI anticancer screen, SRB assay, 48 h; conditions: Homo sapiens
Outline: as §1

RXF 393 (renal) = assay: NCI anticancer screen, SRB assay, 48 h; conditions: Homo sapiens
Outline: as §1

OVCAR-4 (ovarian) = assay: NCI anticancer screen, SRB assay, 48 h; conditions: Homo sapiens
Outline: as §1

A498 (renal) = assay: NCI anticancer screen, SRB assay, 48 h; conditions: Homo sapiens
Outline: as §1

SF-295 (CNS) = assay: NCI anticancer screen, SRB assay, 48 h; conditions: Homo sapiens
Outline: as §1

HCT-116 (colon) = assay: NCI anticancer screen, SRB assay, 48 h; conditions: Homo sapiens
Outline: as §1

PC-3 (prostate) = assay: NCI anticancer screen, SRB assay, 48 h; conditions: Homo sapiens
Outline: as §1

U251 (CNS) = assay: NCI anticancer screen, SRB assay, 48 h; conditions: Homo sapiens
Outline: as §1

[6] = test system: NCI-H322M (non-small cell lung); assay: NCI anticancer screen, SRB assay, 48 h; conditions: Homo sapiens
Outline: as §1

786-0 (renal) = assay: NCI anticancer screen, SRB assay, 48 h; conditions: Homo sapiens
Outline: as §1

MCF7 (breast) = assay: NCI anticancer screen, SRB assay, 48 h; conditions: Homo sapiens
Outline: as §1

MDA-MB-435 (melanoma) = assay: NCI anticancer screen, SRB assay, 48 h; conditions: Homo sapiens
Outline: as §1

SK-MEL-5 (melanoma) = assay: NCI anticancer screen, SRB assay, 48 h; conditions: Homo sapiens
Outline: as §1

[7] = test system: A549/ATCC (non-small cell lung); assay: NCI anticancer screen, SRB assay, 48 h; conditions: Homo sapiens
Outline: as §1

SK-MEL-28 (melanoma) = assay: NCI anticancer screen, SRB assay, 48 h; conditions: Homo sapiens
Outline: as §1

[8] = test system: RPMI-8226 (leukemia cell line); assay: NCI anticancer screen, SRB assay, 48 h; conditions: Homo sapiens
Outline: as §1

[9] = 48 h exposure, SRB, read-out: GI50
[10] = read-out: pGI50 (-log of molar concentration causing 50% inhibition of net cell growth) (converted)

## O=C(/C=C/c1cccc(O)c1)c1cccc(-n2cc(-c3ccccc3)[nH]c2=O)c1 [4a, 1-3-[(E)-3-(3-hydroxyphenyl)-2-propenoyl]phenyl-4-phenyl-2,3-dihydro-1H-2-imidazolone]
[1]; Melanoma panel, log of concentration in mol/L causing 50% inhibition of net cell growth, read-out: mean graph midpoint (MG_MID) of Log10 GI50 (converted)
  GI50: 4.47 µM
[1]; nine melanoma cancer cell lines, exposure at least 48 hrs, read-out: GI50, range over the panel
  GI50: 1.85 to 8.26 µM
[1]; Melanoma panel, log of concentration leading to 50% net cell death
  mean graph midpoint (MG_MID) of Log10 LC50: 4.35
Breast cancer cell lines; Breast panel, log of concentration in mol/L causing 50% inhibition of net cell growth, read-out: mean graph midpoint (MG_MID) of Log10 GI50 (converted)
  GI50: 4.79 µM
Breast cancer cell lines; Breast panel, log of concentration leading to 50% net cell death, read-out: mean graph midpoint (MG_MID) of Log10 LC50 (converted)
  LC50: 72.4 µM
Breast cancer cell lines; five breast cancer cell lines, exposure at least 48 hrs, read-out: GI50, range over the panel
  GI50: 2.47 to 9.32 µM
[2]; Non-small cell lung panel, log of concentration in mol/L causing 50% inhibition of net cell growth, read-out: mean graph midpoint (MG_MID) of Log10 GI50 (converted)
  GI50: 6.92 µM
[2]; nine non-small cell lung cancer cell lines, exposure at least 48 hrs, read-out: GI50, range over the panel
  GI50: 2.49 to 24.8 µM
[3]; Homo sapiens, log of concentration in mol/L causing 50% inhibition of net cell growth, read-out: mean graph midpoint (MG_MID) of Log10 GI50 (converted)
  GI50: 2.82 µM
[3]; Homo sapiens, log of concentration leading to 50% net cell death, read-out: mean graph midpoint (MG_MID) of Log10 LC50 (converted)
  LC50: 49 µM
[3]; log of concentration resulting in total inhibition of net cell growth
  mean graph midpoint (MG_MID) of Log10 TGI: 4.90
CNS cancer cell lines; CNS panel, log of concentration leading to 50% net cell death
  mean graph midpoint (MG_MID) of Log10 LC50: 4.60
CNS cancer cell lines; CNS panel, log of concentration in mol/L causing 50% inhibition of net cell growth, read-out: mean graph midpoint (MG_MID) of Log10 GI50 (converted)
  GI50: 5.75 µM
CNS cancer cell lines; six CNS cancer cell lines, exposure at least 48 hrs, read-out: GI50, range over the panel
  GI50: 1.61 to 18.2 µM
[4]; Ovarian panel, log of concentration in mol/L causing 50% inhibition of net cell growth, read-out: mean graph midpoint (MG_MID) of Log10 GI50 (converted)
  GI50: 4.68 µM
[4]; Ovarian panel, log of concentration leading to 50% net cell death, read-out: mean graph midpoint (MG_MID) of Log10 LC50 (converted)
  LC50: 46.8 µM
[4]; six ovarian cancer cell lines, exposure at least 48 hrs, read-out: GI50, range over the panel
  GI50: 2.8 to 11.1 µM
[5]; Leukemia panel, log of concentration in mol/L causing 50% inhibition of net cell growth, read-out: mean graph midpoint (MG_MID) of Log10 GI50 (converted)
  GI50: 2.29 µM
[5]; Leukemia panel, log of concentration leading to 50% net cell death, read-out: mean graph midpoint (MG_MID) of Log10 LC50 (converted)
  LC50: ≥ 100 µM
[5]; two leukemia cancer cell lines (RPMI-8226 and K-562), exposure at least 48 hrs, read-out: GI50, range over the panel
  GI50: 2.12 to 3.35 µM
Colon cancer cell lines; Colon panel, log of concentration leading to 50% net cell death
  mean graph midpoint (MG_MID) of Log10 LC50: 4.55
Colon cancer cell lines; Colon panel, log of concentration in mol/L causing 50% inhibition of net cell growth, read-out: mean graph midpoint (MG_MID) of Log10 GI50 (converted)
  GI50: 2.75 µM
Colon cancer cell lines; seven colon cancer cell lines, exposure at least 48 hrs, read-out: GI50, range over the panel
  GI50: 1.83 to 4.09 µM
Renal cancer cell lines; log of concentration in mol/L causing 50% inhibition of net cell growth, read-out: mean graph midpoint (MG_MID) of Log10 GI50 (converted)
  GI50: 4.17 µM
Renal cancer cell lines; log of concentration leading to 50% net cell death, read-out: mean graph midpoint (MG_MID) of Log10 LC50 (converted)
  LC50: 33.9 µM
SW-620 (colon); [9]
  GI50: 2.41 µM
SW-620 (colon); [10]
  GI50: 2.4 µM
UO-31 (renal); [9]
  GI50: 2.16 µM
UO-31 (renal); [10]
  GI50: 2.14 µM
RXF 393 (renal); RXF 393, 48 h exposure, SRB, read-out: GI50
  GI50: 1.89 µM
RXF 393 (renal); RXF-393, read-out: pGI50 (-log of molar concentration causing 50% inhibition of net cell growth) (converted)
  GI50: 1.91 µM
OVCAR-4 (ovarian); [9]
  GI50: 5.3 µM
OVCAR-4 (ovarian); [10]
  GI50: 5.25 µM
A498 (renal); [9]
  GI50: 14.3 µM
A498 (renal); [10]
  GI50: 14.5 µM
SF-295 (CNS); [9]
  GI50: 18.2 µM
SF-295 (CNS); [10]
  GI50: 18.2 µM
HCT-116 (colon); [9]
  GI50: 3.02 µM
HCT-116 (colon); [10]
  GI50: 3.02 µM
PC-3 (prostate); PC-3, read-out: pGI50 (-log of molar concentration causing 50% inhibition of net cell growth) (converted)
  GI50: 2.82 µM
PC-3 (prostate); one prostate cancer cell line (PC-3), exposure at least 48 hrs, read-out: GI50
  GI50: 2.82 µM
U251 (CNS); U-251, 48 h exposure, SRB, read-out: GI50
  GI50: 1.61 µM
U251 (CNS); U-251, read-out: pGI50 (-log of molar concentration causing 50% inhibition of net cell growth) (converted)
  GI50: 1.62 µM
[6]; [9]
  GI50: 10.6 µM
[6]; [10]
  GI50: 10.7 µM
786-0 (renal); [9]
  GI50: 2.98 µM
786-0 (renal); [10]
  GI50: 2.95 µM
MCF7 (breast); [9]
  GI50: 2.47 µM
MCF7 (breast); [10]
  GI50: 2.45 µM
MDA-MB-435 (melanoma); [9]
  GI50: 3.12 µM
MDA-MB-435 (melanoma); [10]
  GI50: 3.09 µM
SK-MEL-5 (melanoma); [9]
  GI50: 3.18 µM
SK-MEL-5 (melanoma); [10]
  GI50: 3.16 µM
[7]; [9]
  GI50: 3.89 µM
[7]; [10]
  GI50: 3.89 µM
SK-MEL-28 (melanoma); [9]
  GI50: 5.63 µM
SK-MEL-28 (melanoma); [10]
  GI50: 5.62 µM
[8]; [9]
  GI50: 2.15 µM
[8]; [10]
  GI50: 2.14 µM
